Laboratory results taken from patent US20150118304A1, “COMPOSITIONS COMPRISING SULFORAPHANE OR A SULFORAPHANE PRECURSOR AND MAGNESIUM” (Nutramax Laboratories, Inc., priority 2012, published 2015).
Read-outs that look alike come from different tables or passages of the source.

Experiments:
[1] = test system: broccoli sprout-derived myrosinase; test: Hydrolysis of glucoraphanin (broccoli seed extract) by myrosinase as a function of ascorbic acid concentration; format: biochemical; conditions: 38° C.; for Slope (rate of glucoraphanin consumption): linear regression 0-60 min
Protocol: About 250 mg of broccoli seed extract containing about 12% (w/w) glucoraphanin were subjected to hydrolysis by a fixed concentration of broccoli sprout-derived myrosinase in the presence of variable concentration of ascorbic acid, ranging from 0 to 600 μmoles/Liter. The reaction mixtures were thermostated at 38° C.; aliquots were withdrawn every 15 minutes for 60 minutes, and concentration of glucoraphanin determined chromatographically. The rate of glucoraphanin consumption was interpreted as the rate its conversion to sulforaphane. Graphical representation of glucoraphanin content reduction as a function of increasing ascorbic acid concentration results in a series of linear plots; the slopes of the linear regression lines reflect the rate of glucoraphanin consumption, in μmoles/minute. It is apparent that in the presence of 600 μmoles/Liter concentration of ascorbic acid, the reaction rate increased 13-fold relative to that which proceeded in the absence of modulatory effects of ascorbic acid.

myrosinase [2] = test: Equimolar conversion of glucoraphanin to sulforaphane by myrosinase, with and without ascorbic acid; format: biochemical; conditions: Part 2; broccoli seed extract fixed at 250 mg
Protocol: A two-part experiment was conducted to further elucidate the role of ascorbic acid in modulating myrosinase activity. […] A control sample contained no ascorbic acid, and the enzymatic conversion proceeded unassisted by a co-factor. PART 1. […] PART 2. While keeping the amount of broccoli seed extract fixed at 250 mg, the concentration of ascorbic acid was varied from 0.4 mmol/Liter to 3.8 mmol/Liter.

myrosinase [3] = test: Conversion of glucoraphanin to sulforaphane in Simulated Intestinal Fluid; format: biochemical, broccoli; conditions: 0.25 to 1.00 mmol/Liter ascorbic acid, 38° C., especially at the earlier stages, FIG. 4
Protocol: Simulated Intestinal Fluid (SIF) powder, a commercially supplied concentrate closely approximating the human intestinal content in terms of composition, pH and ionic strength, was used. The experiment utilized a USP Dissolution Apparatus 2 (paddles), where into six dissolution vessels 500 mL of Simulated Intestinal Fluid was dispensed, along with 150 mg of freeze-dried broccoli sprout powder as a source of myrosinase. […] Aliquots were withdrawn every 15 minutes, and assayed for sulforaphane.

[4] = test system: monocyte chemoattractant protein (MCP-1); conditions: 24 hours, RAW cells activated with 1 μg/mL LPS
Protocol: The following study was conducted to determine the effect of the combination of sulforaphane and magnesium sulfate (MgSO4) on expression of monocyte chemoattractant protein (MCP-1), which is a mediator of inflammation. MCP-1 is chemokine which attracts monocytes, macrophages, and lymphocytes to sites of inflammation. A reduction in MCP-1 is beneficial for the health of endothelial cells which line the cardiovascular system.
In the study, RAW cells were activated with 1 μg/mL lipopolysaccharide (LPS) for 30 minutes to stimulate the induction of MCP-1 gene expression. Following LPS treatment, the cells were treated with one of the following: (i) DMSO (vehicle control), (ii) 0.5 μM SFN, (iii) 2.5 mM MgSO4, or (iv) the combination of 0.5 μM SFN and 2.5 mM MgSO4. After treatment for 24 hours, the MCP-1 levels were assessed via quantitative RT-PCR.

[5] = test system: NAD(P)H:quinine oxidoreductase (NQO1); conditions: oral administration; mammary epithelium; Sprague-Dawley rats; cited from earlier work
heme oxygenase-1 (HO-1) = conditions: oral administration; mammary epithelium; Sprague-Dawley rats; cited from earlier work
mammary tumors = conditions: Sprague-Dawley rats; cited from earlier work

O=C1O[C@H]([C@@H](O)CO)C(O)=C1O [Ascorbic Acid, ascorbic acid]
increase of reaction rate (glucoraphanin consumption) ([1]; 600 μmoles/Liter ascorbic acid, relative to absence of ascorbic acid): 13 fold | Slope (rate of glucoraphanin consumption) ([1]; ascorbic acid 50 μM): -0.286 µmol/min | glucoraphanin (GR) content ([1]; ascorbic acid 50 μM, time 0 min): 93.36 µmol | glucoraphanin (GR) content ([1]; ascorbic acid 50 μM, time 15 min): 89.20 µmol | glucoraphanin (GR) content ([1]; ascorbic acid 50 μM, time 30 min): 84.24 µmol | glucoraphanin (GR) content ([1]; ascorbic acid 50 μM, time 45 min): 80.30 µmol | glucoraphanin (GR) content ([1]; ascorbic acid 50 μM, time 60 min): 76.36 µmol | Slope (rate of glucoraphanin consumption) ([1]; ascorbic acid 125 μM): -0.5622 µmol/min | glucoraphanin (GR) content ([1]; ascorbic acid 125 μM, time 0 min): 93.36 µmol | glucoraphanin (GR) content ([1]; ascorbic acid 125 μM, time 15 min): 84.52 µmol | glucoraphanin (GR) content ([1]; ascorbic acid 125 μM, time 30 min): 75.92 µmol | glucoraphanin (GR) content ([1]; ascorbic acid 125 μM, time 45 min): 68.09 µmol | glucoraphanin (GR) content ([1]; ascorbic acid 125 μM, time 60 min): 59.41 µmol | Slope (rate of glucoraphanin consumption) ([1]; ascorbic acid 250 μM Filtered): -0.4714 µmol/min | glucoraphanin (GR) content ([1]; ascorbic acid 250 μM Filtered, time 0 min): 93.36 µmol | glucoraphanin (GR) content ([1]; ascorbic acid 250 μM Filtered, time 15 min): 86.31 µmol | glucoraphanin (GR) content ([1]; ascorbic acid 250 μM Filtered, time 30 min): 79.44 µmol | glucoraphanin (GR) content ([1]; ascorbic acid 250 μM Filtered, time 45 min): 71.94 µmol | glucoraphanin (GR) content ([1]; ascorbic acid 250 μM Filtered, time 60 min): 65.18 µmol | Slope (rate of glucoraphanin consumption) ([1]; ascorbic acid 250 μM): -0.7901 µmol/min | glucoraphanin (GR) content ([1]; ascorbic acid 250 μM, time 0 min): 93.36 µmol | glucoraphanin (GR) content ([1]; ascorbic acid 250 μM, time 15 min): 80.95 µmol | glucoraphanin (GR) content ([1]; ascorbic acid 250 μM, time 30 min): 69.06 µmol | glucoraphanin (GR) content ([1]; ascorbic acid 250 μM, time 45 min): 57.63 µmol | glucoraphanin (GR) content ([1]; ascorbic acid 250 μM, time 60 min): 45.76 µmol | Slope (rate of glucoraphanin consumption) ([1]; ascorbic acid 400 μM): -1.007 µmol/min | glucoraphanin (GR) content ([1]; ascorbic acid 400 μM, time 0 min): 93.36 µmol | glucoraphanin (GR) content ([1]; ascorbic acid 400 μM, time 15 min): 78.32 µmol | glucoraphanin (GR) content ([1]; ascorbic acid 400 μM, time 30 min): 62.78 µmol | glucoraphanin (GR) content ([1]; ascorbic acid 400 μM, time 45 min): 47.67 µmol | glucoraphanin (GR) content ([1]; ascorbic acid 400 μM, time 60 min): 33.15 µmol | Slope (rate of glucoraphanin consumption) ([1]; ascorbic acid 600 μM): -1.2 µmol/min | glucoraphanin (GR) content ([1]; ascorbic acid 600 μM, time 0 min): 93.36 µmol | glucoraphanin (GR) content ([1]; ascorbic acid 600 μM, time 15 min): 75.02 µmol | glucoraphanin (GR) content ([1]; ascorbic acid 600 μM, time 30 min): 55.66 µmol | glucoraphanin (GR) content ([1]; ascorbic acid 600 μM, time 45 min): 37.50 µmol | glucoraphanin (GR) content ([1]; ascorbic acid 600 μM, time 60 min): 22.09 µmol | ascorbic acid concentration up to which myrosinase-promoted conversion increases apparently linearly, then levels off (myrosinase [2]): about 2 mmol/L | relation of sulforaphane yield to ascorbic acid concentration (myrosinase [3]): direct correlation between larger yield of sulforaphane and higher concentrations of ascorbic acid

O=S(=O)([O-])[O-].[Mg+2] [magnesium sulfate]
decrease in MCP-1 levels ([4]; 2.5 mM MgSO4): approximately 16%

C[S+]([O-])CCCCN=C=S (centres unmarked) [sulforaphane, 1-isothiocyanato-4-methylsulfinylbutane]
decrease in MCP-1 levels ([4]; 0.5 μM SFN): approximately 29% | increase in NQO1 enzymatic activity [5]: 3 fold | elevated immunostaining of HO-1 (heme oxygenase-1 (HO-1)): 4 fold | blocking the formation of mammary tumors (mammary tumors): effective in blocking the formation of mammary tumors
